Literature values, collected in PubChem BioAssay AID1259409 (Chemical Carcinogenesis Research Information System (CCRIS), 2018).

Tested on: rodent chemically induced tumor inhibition, incidence and multiplicity
Experiment: CCRIS tumor inhibitor studies

O=c1cc(-c2ccccc2)oc2c1ccc1ccccc12
tumour outcome (control, treated, inhibition, significance) (Carcinogen: 2-AMINO-1-METHYL-6-PHENYLIMIDAZO[4,5-B]PYRIDINE [105650-23-5], Dose [Inhibitor]: 1,000 PPM IN DIET FOR 4 WK BEGINNING WK PRIOR TO FIRST CARCINOGEN DOSE (STUDY DURATION: 25 WK), Route [Inhibitor]: ORAL, Species: RAT, Strain/Sex: SPRAGUE-DAWLEY/FEMALE, Target Tissue: Type of Lesion: MAMMARY GLAND: FIBROADENOMA OR DUCTAL CARCINOMA, Dose [Carcinogen]: 85 MG/KG BW 2/WK FOR 4 WK (STUDY DURATION: 25 WK), Promoter: NONE): 63%, 36%, 42%, not significant
tumour outcome (control, treated, inhibition, significance) (Carcinogen: 6-HYDROXYMETHYLBENZO[A]PYRENE, 21247-98-3, Dose [Inhibitor]: 100 UG IN 0.2 ML ACETONE ONCE 5 MINUTES BEFORE CARCINOGEN TREATMENT (STUDY DURATION: 31 WK), Route [Inhibitor]: DERMAL, Species: MOUSE, Strain/Sex: CD-1/FEMALE, Target Tissue: Type of Lesion: SKIN: PAPILLOMA, Dose [Carcinogen]: 400 NMOL IN 0.2 ML ACETONE ONCE, Promoter: 12-O-TETRADECANOYLPHORBOL-13-ACETATE, 16561-29-8): 57%, 60%, -5%, not calculated
tumour outcome (control, treated, inhibition, significance) (Carcinogen: 6-METHYLBENZO[A]PYRENE, 2381-39-7, Dose [Inhibitor]: 100 UG IN 0.2 ML ACETONE ONCE 5 MINUTES BEFORE CARCINOGEN TREATMENT (STUDY DURATION: 31 WK), Route [Inhibitor]: DERMAL, Species: MOUSE, Strain/Sex: CD-1/FEMALE, Target Tissue: Type of Lesion: SKIN: PAPILLOMA, Dose [Carcinogen]: 400 NMOL IN 0.2 ML ACETONE ONCE, Promoter: 12-O-TETRADECANOYLPHORBOL-13-ACETATE, 16561-29-8): 73%, 40%, 44%, not calculated
tumour outcome (control, treated, inhibition, significance) (Carcinogen: 7,12-DIMETHYLBENZ[A]ANTHRACENE, 57-97-6, Dose [Inhibitor]: 0, 0.37 NMOL IN 0.2 ML ACETONE APPLIED 5 MIN PRIOR TO CARCINOGEN (STUDY DURATION: 21 WK), Route [Inhibitor]: DERMAL, Species: MOUSE, Strain/Sex: SENCAR/FEMALE, Target Tissue: Type of Lesion: SKIN: PAPILLOMA, Dose [Carcinogen]: 40 NMOL IN 0.2 ML ACETONE ONCE, Promoter: 12-O-TETRADECANOYLPHORBOL-13-ACETATE, 16561-29-8): 100%, 100%, 0%
tumour outcome (control, treated, inhibition, significance) (Carcinogen: 7,12-DIMETHYLBENZ[A]ANTHRACENE, 57-97-6, Dose [Inhibitor]: 0, 3.7 NMOL IN 0.2 ML ACETONE APPLIED 5 MIN PRIOR TO CARCINOGEN (STUDY DURATION: 21 WK), Route [Inhibitor]: DERMAL, Species: MOUSE, Strain/Sex: SENCAR/FEMALE, Target Tissue: Type of Lesion: SKIN: PAPILLOMA, Dose [Carcinogen]: 40 NMOL IN 0.2 ML ACETONE ONCE, Promoter: 12-O-TETRADECANOYLPHORBOL-13-ACETATE, 16561-29-8): 100%, 100%, 0%
tumour outcome (control, treated, inhibition, significance) (Carcinogen: 7,12-DIMETHYLBENZ[A]ANTHRACENE, 57-97-6, Dose [Inhibitor]: 0, 37 NMOL IN 0.2 ML ACETONE APPLIED 5 MIN PRIOR TO CARCINOGEN (STUDY DURATION: 21 WK), Route [Inhibitor]: DERMAL, Species: MOUSE, Strain/Sex: SENCAR/FEMALE, Target Tissue: Type of Lesion: SKIN: PAPILLOMA, Dose [Carcinogen]: 10 NMOL IN 0.2 ML ACETONE ONCE, Promoter: 12-O-TETRADECANOYLPHORBOL-13-ACETATE, 16561-29-8): 79%, 60%, 24%, not calculated
tumour outcome (control, treated, inhibition, significance) (Carcinogen: 7,12-DIMETHYLBENZ[A]ANTHRACENE, 57-97-6, Dose [Inhibitor]: 0, 37 NMOL IN 0.2 ML ACETONE APPLIED 5 MIN PRIOR TO CARCINOGEN (STUDY DURATION: 21 WK), Route [Inhibitor]: DERMAL, Species: MOUSE, Strain/Sex: SENCAR/FEMALE, Target Tissue: Type of Lesion: SKIN: PAPILLOMA, Dose [Carcinogen]: 40 NMOL IN 0.2 ML ACETONE ONCE, Promoter: 12-O-TETRADECANOYLPHORBOL-13-ACETATE, 16561-29-8): 100%, 87%, 13%, not calculated
tumour outcome (control, treated, inhibition, significance) (Carcinogen: 7,12-DIMETHYLBENZ[A]ANTHRACENE, 57-97-6, Dose [Inhibitor]: 0, 370 NMOL IN 0.2 ML ACETONE APPLIED 5 MIN PRIOR TO CARCINOGEN (STUDY DURATION: 21 WK), Route [Inhibitor]: DERMAL, Species: MOUSE, Strain/Sex: SENCAR/FEMALE, Target Tissue: Type of Lesion: SKIN: PAPILLOMA, Dose [Carcinogen]: 10 NMOL IN 0.2 ML ACETONE ONCE, Promoter: 12-O-TETRADECANOYLPHORBOL-13-ACETATE, 16561-29-8): 79%, 46%, 42%, not calculated
tumour outcome (control, treated, inhibition, significance) (Carcinogen: 7,12-DIMETHYLBENZ[A]ANTHRACENE, 57-97-6, Dose [Inhibitor]: 0, 370 NMOL IN 0.2 ML ACETONE APPLIED 5 MIN PRIOR TO CARCINOGEN (STUDY DURATION: 21 WK), Route [Inhibitor]: DERMAL, Species: MOUSE, Strain/Sex: SENCAR/FEMALE, Target Tissue: Type of Lesion: SKIN: PAPILLOMA, Dose [Carcinogen]: 40 NMOL IN 0.2 ML ACETONE ONCE, Promoter: 12-O-TETRADECANOYLPHORBOL-13-ACETATE, 16561-29-8): 100%, 97%, 3%, not calculated
tumour outcome (control, treated, inhibition, significance) (Carcinogen: 7,12-DIMETHYLBENZ[A]ANTHRACENE, 57-97-6, Dose [Inhibitor]: 25 UG/MOUSE APPLIED 6 HR BEFORE, 5 MIN BEFORE, AND 6 HR AFTER DMBA (STUDY DURATION: 28 WK), Route [Inhibitor]: DERMAL, Species: MOUSE, Strain/Sex: CD-1/FEMALE, Target Tissue: Type of Lesion: SKIN: PAPILLOMA, Dose [Carcinogen]: 2.56 UG APPLIED ONCE 5 MIN AFTER INHIBITOR, Promoter: 12-O-TETRADECANOYLPHORBOL-13-ACETATE, 16561-29-8): 82%, 22%, 73%, not calculated
tumour outcome (control, treated, inhibition, significance) (Carcinogen: 7,12-DIMETHYLBENZ[A]ANTHRACENE, 57-97-6, Dose [Inhibitor]: 25 UG/MOUSE APPLIED ONCE 5 MIN BEFORE DMBA (STUDY DURATION: 28 WK), Route [Inhibitor]: DERMAL, Species: MOUSE, Strain/Sex: CD-1/FEMALE, Target Tissue: Type of Lesion: SKIN: PAPILLOMA, Dose [Carcinogen]: 2.56 UG APPLIED ONCE 5 MIN AFTER INHIBITOR, Promoter: 12-O-TETRADECANOYLPHORBOL-13-ACETATE, 16561-29-8): 82%, 48%, 41%, not calculated
tumour outcome (control, treated, inhibition, significance) (Carcinogen: 7,12-DIMETHYLBENZ[A]ANTHRACENE, 57-97-6, Dose [Inhibitor]: 100 UG IN 0.2 ML ACETONE ONCE 5 MIN BEFORE CARCINOGEN TREATMENT (STUDY DURATION: 31 WK), Route [Inhibitor]: DERMAL, Species: MOUSE, Strain/Sex: CD-1/FEMALE, Target Tissue: Type of Lesion: SKIN: PAPILLOMA, Dose [Carcinogen]: 10 NMOL IN 0.2 ML ACETONE ONCE, Promoter: 12-O-TETRADECANOYLPHORBOL-13-ACETATE, 16561-29-8): 90%, 38%, 58%, not calculated
